Data published in patent US12208091B2, “Compounds for treatment of eye diseases associated with excessive vascularisation” (Active Biotech AB, priority 2019, dated 2025).
“Also recorded” adds a separate entry of the source.

Experiments:
[1] = test system: VEGF induced corneal vascularisation; assay: VEGF induced corneal vascularisation (pellet in corneal pocket), area of neovascularisation; assay type: in vivo, C57BL/6 mice; design: Area of vasc.: unit not given beside the values
Description: (§1) The area of the neovascularisation can be measured using the formula: Area=0.2·VL·CH·π wherein vessel length (VL) and continuous circumferential zone (in clock hours=CH) are measured as defined in FIG. 1. Treatment with Laquinimod of VEGF Induced Corneal Vascularisation
Hydron pellets for induction of vascularisation were prepared from stimulant (VEGF) and binding agent (sucralfate).
53 CR female C57BL/6 mice aged 6 to 8 weeks were prepared for surgery by anesthetising with 90 mg/kg of pentobarbital, ip. Corneal vascularisation was induced by placement of a pellet in a corneal pocket cut in one eye. Signs for ocular irritation or infection were carefully monitored.
[…] Vascularisation was measured on day 8.

[2] = test system: bFGF induced corneal vascularisation; assay: bFGF induced corneal vascularisation (pellet in corneal pocket), area of neovascularisation; assay type: in vivo, C57BL/6 mice
Description: as §1
Hydron pellets for induction of vascularisation were prepared from stimulant (bFGF) and binding agent (sucralfate).
47 CR female C57BL/6 mice aged 6 to 8 weeks were prepared for surgery by anesthetising with 90 mg/kg of pentobarbital, ip. Corneal vascularisation was induced by placement of a pellet in a corneal pocket cut in one eye. Signs for ocular irritation or infection were carefully monitored.
Dosages of laquinimod in DI (deionised) water, vehicle (DDW=double distilled water), and avastin (positive control) were applied directly to the eye containing the pellet. Vascularisation was measured on day 6.

[3] = test system: Human retinal microvascular endothelial cells (HRMECs); assay: Tube formation assay, combination with aflibercept (contemplated); assay type: cell-based; conditions: 1 and 10 μM combined with Aflibercept (30 nM)
Description: Microglia, especially activated microglia play important roles in angiogenesis and maintenance of vascular function haemostasis in the retinal microvasculature (Ding et al 2018). It is contemplated that a co-culture of human retinal microvasculature endothelial cells (HRMEC's) and human microglia from brain can be used to assess the effects of a compound of the disclosure, such as laquinimod, tasquinimod, ABR-215174 or ABR-215691, on neovascularization. A method such as the one outlined below may be used.
This study may be carried out substantially as outlined in Example 3.
Tube formation assay is performed using 24-well plate wells coated with Matrigel or in 96-wells as described Ding et al. 2018 (Ding et al. BMC Ophthalmology (2018) 18:249): A 96-well plate is coated with 50 μL/well Matrigel at 37° C. for 30 min. After co-culturing with microglia for 24 h, HRMECs are seeded on the Matrigel at 1.5×10^4 cells/well in 100 μL medium. After a period of time, for example 4 h, tube formation is observed and photographed with a microscope (Leica Microsystems). Images are analysed using the Angiotool plugin (Zudaire et al., 2011, PLoS one, 6, 11, e27385) for ImageJ (NIH public domain). Total tube area, tube length, density, lacunarity, and branching index (number of junctions and endpoints) are quantified.

[4] = test system: bFGF induced corneal vascularisation; assay: bFGF induced corneal vascularisation (pellet in corneal pocket), area of neovascularisation; assay type: in vivo, C57BL/6 mice; remark: listed apart in the source
[5] = group 4: 10 μg/animal topical bid ×7, measured day 8
[6] = group 5: 50 μg/animal topical bid ×7, measured day 8
[7] = group 6: 10 μg/animal topical qid ×7, measured day 8
[8] = group 7: 50 μg/animal topical qid ×7, measured day 8
[9] = group 5: 50 μg/animal topical bid ×5, measured day 6
[10] = group 7: 50 μg/animal topical qid ×5, measured day 6
[11] = group 4: 10 μg/animal topical bid ×5, measured day 6
[12] = group 6: 10 μg/animal topical qid ×5, measured day 6

In the case of `CCN(C(=O)c1c(O)c2c(Cl)cccc2n(C)c1=O)c1ccccc1` [laquinimod], the “Inhibition of corneal vascularisation induced by VEGF” value (“Inhibition … by VEGF” below) ([1]; 0.5 mg/kg bid, group 4) is reported as “did not provide for any inhibition; also recorded: no inhibition”, the “Inhibition … by VEGF” value ([1]; 0.5 mg/kg qid, group 6) is reported as 8% and the “Inhibition … by VEGF” value ([1]; 2.5 mg/kg bid, group 5) is reported as 46%. The “Inhibition … by VEGF” value ([1]; 2.5 mg/kg qid, group 7) was 50%, the Area of vasc. [1, 5] was 1.49 ± 0.13 and the “Area percent of positive control” value [1, 5] was 101%. The Area of vasc. [1, 6] was 0.79 ± 0.06, the “Area percent of positive control” value [1, 6] was 54% and the Area of vasc. [1, 7] was 1.35 ± 0.09. For the same molecule, the “Area percent of positive control” value [1, 7] was 92%, the Area of vasc. [1, 8] was 0.74 ± 0.11 and the “Area percent of positive control” value [1, 8] was 50%. The “Inhibition of corneal vascularisation induced by bFGF” value (“Inhibition … by bFGF” below) ([2]; 0.5 mg/kg bid, group 4) was 11%, the “Inhibition … by bFGF” value ([2]; 2.5 mg/kg bid, group 5) was 35% and the “Inhibition … by bFGF” value ([2]; 2.5 mg/kg qid, group 7) was 56%. The Area of vasc. [2, 9] was 2.30 ± 0.23, the “Area percent of positive control” value [2, 9] was 65% and the Area of vasc. [2, 10] was 1.56 ± 0.15. The “effect on tube formation of combination compared to each compound used as monotherapy” value [3] was “clear additive effect”, the “Inhibition … by bFGF” value ([4]; 0.5 mg/kg qid, group 6) was 37% and the Area of vasc. [4, 11] was 3.16 ± 0.06. For the same molecule, the “Area percent of positive control” value [4, 11] was 89%, the Area of vasc. [4, 12] was 2.25 ± 0.16 and the “Area percent of positive control” value [4, 12] was 63%. The “Area percent of positive control” value [4, 10] was 44%.
